Laboratory results taken from ChEMBL document CHEMBL1201862, “PubChem BioAssay data set” (2004).
Blank lines part the entries; values can stand above or below the compound they belong to. Calls of active or inactive are those of the source.

Key:
[1] = Luminescence Cell-Based Dose Retest to Confirm Inhibitors of Cancer Stem Cells. [Related pubchem assays (depositor defined):AID2717, AID2721]; assay type: functional; settings: Homo sapiens
[2] = molecular target: T1, Intestinal-type alkaline phosphatase (Homo sapiens, UniProt P09923); experiment: human IAP activators, dose response, biochemical, luminescent, uHTS hits, set 2 (AID 488817); assay type: functional;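 note: potency of activators that raise enzyme activity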
[3] = molecular target: T2, Alkaline phosphatase, tissue-nonspecific isozyme (Homo sapiens, UniProt P05186); experiment: TNAP enzyme activators, dose response, selectivity assay for human IAP activator project, biochemical, TNAP isozyme, human IAP uHTS hits (AID 488886); assay type: functional;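 note: potency of compounds raising TNAP activity as a selectivity check on IAP activators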
T2 sequence (P05186 whole entry): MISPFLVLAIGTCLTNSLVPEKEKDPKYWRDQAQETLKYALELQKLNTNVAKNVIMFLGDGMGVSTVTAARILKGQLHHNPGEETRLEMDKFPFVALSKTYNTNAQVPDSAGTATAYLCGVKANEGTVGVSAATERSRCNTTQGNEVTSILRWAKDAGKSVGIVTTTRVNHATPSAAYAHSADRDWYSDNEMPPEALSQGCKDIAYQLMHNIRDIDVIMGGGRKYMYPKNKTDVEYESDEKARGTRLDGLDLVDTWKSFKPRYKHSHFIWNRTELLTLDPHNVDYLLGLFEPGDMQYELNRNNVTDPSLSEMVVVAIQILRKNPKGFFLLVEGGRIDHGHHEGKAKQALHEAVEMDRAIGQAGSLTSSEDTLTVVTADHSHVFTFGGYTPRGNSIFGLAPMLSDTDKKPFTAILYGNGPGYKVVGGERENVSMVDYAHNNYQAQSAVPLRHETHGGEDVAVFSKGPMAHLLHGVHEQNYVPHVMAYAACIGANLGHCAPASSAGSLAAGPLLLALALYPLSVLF

[4] = molecular target: T1, Intestinal-type alkaline phosphatase; experiment: human intestinal alkaline phosphatase activators, dose response, biochemical, luminescence, uHTS hits (AID 463120); assay type: functional
[5] = molecular target: Intestinal-type alkaline phosphatase (Mus musculus, UniProt P24822); experiment: PubChem AID 488874; assay type: functional
[6] = system: Escherichia coli; experiment: microbe, parasite or virus in culture
[7] = molecular target: T3, G-protein coupled receptor 35 (Homo sapiens, UniProt Q9HC97); experiment: SAR analysis of Agonists of the GPR35 Receptor using an Image-Based Assay - Set 2. [Related pubchem assays (depositor defined):AID2013, AID2026]; assay type: functional
[8] = molecular target: T4, Cannabinoid receptor 1 (Homo sapiens, UniProt P21554); experiment: SAR analysis of agonists of the Cannabinoid Receptor 1 using an Image-Based Assay - Set 2. [Related pubchem assays (depositor defined):AID2013, AID2026]; assay type: functional
[9] = molecular target: T5, Cannabinoid receptor 2 (Homo sapiens, UniProt P34972); experiment: SAR analysis of agonists of the Cannabinoid Receptor 2 using an Image-Based Assay. [Related pubchem assays (depositor defined):AID2013, AID2026]; assay type: functional
[10] = molecular target: T3, G-protein coupled receptor 35; experiment: SAR analysis of Antagonists of the GPR35 Receptor using an Image-Based Assay - Set 3. [Related pubchem assays (depositor defined):AID2013, AID2026]; assay type: functional
[11] = molecular target: T4, Cannabinoid receptor 1; experiment: SAR analysis of antagonists of the Cannabinoid Receptor 1 using an Image-Based Assay - Set 2. [Related pubchem assays (depositor defined):AID2013, AID2026]; assay type: functional
[12] = molecular target: T5, Cannabinoid receptor 2; experiment: SAR analysis of antagonists of the Cannabinoid Receptor 2 using an Image-Based Assay. [Related pubchem assays (depositor defined):AID2013, AID2026]; assay type: functional
[13] = molecular target: G-protein coupled receptor 55 (Homo sapiens, UniProt Q9Y2T6); experiment: GPR55 antagonist potency of analogs, SAR follow-up, imaging, U2OS, beta-arrestin-GFP, LPI agonist, set 2 (AID 2820); assay type: functional
G-protein coupled receptor 55, sequence (Q9Y2T6 whole entry): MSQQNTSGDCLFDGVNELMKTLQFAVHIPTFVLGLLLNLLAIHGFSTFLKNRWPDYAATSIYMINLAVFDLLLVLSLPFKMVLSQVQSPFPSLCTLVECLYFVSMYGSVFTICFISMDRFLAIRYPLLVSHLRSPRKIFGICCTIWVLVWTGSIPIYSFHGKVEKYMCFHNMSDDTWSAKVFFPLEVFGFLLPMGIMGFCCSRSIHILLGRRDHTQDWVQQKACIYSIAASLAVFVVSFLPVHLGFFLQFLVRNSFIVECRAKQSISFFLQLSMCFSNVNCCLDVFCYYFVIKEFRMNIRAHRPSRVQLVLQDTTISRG

T5 sequence (P34972 whole entry): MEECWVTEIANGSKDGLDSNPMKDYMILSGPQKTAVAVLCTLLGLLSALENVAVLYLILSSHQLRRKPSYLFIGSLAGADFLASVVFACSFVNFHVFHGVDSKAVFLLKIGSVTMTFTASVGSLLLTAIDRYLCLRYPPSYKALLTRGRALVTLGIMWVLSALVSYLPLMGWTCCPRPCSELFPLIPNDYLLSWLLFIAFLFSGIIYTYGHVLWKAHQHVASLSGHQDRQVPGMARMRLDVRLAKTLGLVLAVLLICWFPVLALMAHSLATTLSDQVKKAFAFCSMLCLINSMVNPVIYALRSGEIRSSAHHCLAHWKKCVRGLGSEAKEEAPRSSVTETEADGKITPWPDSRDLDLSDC
T3 sequence (Q9HC97 whole entry): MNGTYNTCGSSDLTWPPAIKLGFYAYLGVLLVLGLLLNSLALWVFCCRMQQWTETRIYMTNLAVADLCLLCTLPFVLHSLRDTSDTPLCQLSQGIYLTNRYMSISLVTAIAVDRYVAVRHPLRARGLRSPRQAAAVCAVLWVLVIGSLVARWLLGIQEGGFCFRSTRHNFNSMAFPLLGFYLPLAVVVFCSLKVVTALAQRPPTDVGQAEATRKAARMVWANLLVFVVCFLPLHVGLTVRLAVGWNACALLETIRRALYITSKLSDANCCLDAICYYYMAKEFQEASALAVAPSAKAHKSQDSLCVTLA
T4 sequence (P21554 whole entry): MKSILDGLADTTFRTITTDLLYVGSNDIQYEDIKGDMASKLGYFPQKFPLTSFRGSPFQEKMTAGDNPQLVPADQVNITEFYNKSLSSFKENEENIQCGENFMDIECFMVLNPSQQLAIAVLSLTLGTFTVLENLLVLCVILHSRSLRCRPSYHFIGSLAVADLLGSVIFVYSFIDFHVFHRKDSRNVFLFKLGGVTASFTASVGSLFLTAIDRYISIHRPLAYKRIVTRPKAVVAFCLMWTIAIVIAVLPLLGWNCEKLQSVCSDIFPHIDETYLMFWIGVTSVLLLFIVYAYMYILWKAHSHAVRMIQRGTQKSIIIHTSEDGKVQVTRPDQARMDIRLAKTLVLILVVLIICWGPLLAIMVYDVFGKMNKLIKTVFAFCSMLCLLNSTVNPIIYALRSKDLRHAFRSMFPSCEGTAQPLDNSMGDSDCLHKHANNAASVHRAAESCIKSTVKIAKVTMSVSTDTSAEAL
T1 sequence (P09923 whole entry): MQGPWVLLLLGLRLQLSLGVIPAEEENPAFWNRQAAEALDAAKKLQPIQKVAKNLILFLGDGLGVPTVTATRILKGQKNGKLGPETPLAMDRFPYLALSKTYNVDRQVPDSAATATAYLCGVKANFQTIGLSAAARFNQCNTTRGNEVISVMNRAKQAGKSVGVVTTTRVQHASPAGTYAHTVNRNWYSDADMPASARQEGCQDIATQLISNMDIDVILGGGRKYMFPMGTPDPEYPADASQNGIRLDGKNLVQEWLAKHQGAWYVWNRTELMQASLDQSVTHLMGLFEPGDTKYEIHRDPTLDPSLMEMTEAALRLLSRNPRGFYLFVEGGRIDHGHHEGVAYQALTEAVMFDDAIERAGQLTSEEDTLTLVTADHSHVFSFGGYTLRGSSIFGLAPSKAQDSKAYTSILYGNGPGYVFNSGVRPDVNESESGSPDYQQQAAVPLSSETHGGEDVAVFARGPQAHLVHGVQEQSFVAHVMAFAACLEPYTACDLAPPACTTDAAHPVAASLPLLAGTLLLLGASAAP
Intestinal-type alkaline phosphatase (Mus musculus, UniProt P24822), sequence (P24822 whole entry): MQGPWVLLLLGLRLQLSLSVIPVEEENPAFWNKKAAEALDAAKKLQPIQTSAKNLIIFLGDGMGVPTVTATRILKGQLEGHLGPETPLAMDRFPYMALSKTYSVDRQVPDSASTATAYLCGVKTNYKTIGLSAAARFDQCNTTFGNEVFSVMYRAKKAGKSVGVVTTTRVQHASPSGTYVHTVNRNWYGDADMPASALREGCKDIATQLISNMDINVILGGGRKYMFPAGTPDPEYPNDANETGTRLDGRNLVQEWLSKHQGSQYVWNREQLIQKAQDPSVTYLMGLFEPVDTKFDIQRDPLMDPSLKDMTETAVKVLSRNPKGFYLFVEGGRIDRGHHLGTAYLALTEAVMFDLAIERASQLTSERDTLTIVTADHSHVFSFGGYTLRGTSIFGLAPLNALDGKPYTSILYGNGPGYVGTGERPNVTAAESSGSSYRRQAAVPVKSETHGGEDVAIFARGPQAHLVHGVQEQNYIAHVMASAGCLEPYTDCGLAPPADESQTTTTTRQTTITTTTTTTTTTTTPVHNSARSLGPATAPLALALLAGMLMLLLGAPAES

Compound: O=C(Nc1ccon1)c1nc[nH]c1C(=O)NCc1ccccc1
AC50 [1]: 0.76 µM (active)
EC50 [2]: 13.9 µM (active)
EC50 [3]: 16.4 µM (active)
EC50 [4]: 14.2 µM (active)
IC50 [5]: 38.8 µM (active)

Compound: O=S(=O)(c1ccc2nc(O)sc2c1)N1CCCCC1
AC50 [6]: > 150 µM (inactive)

EC50 [7]: > 32 µM (inactive)
EC50 [8]: > 32 µM (inactive)
EC50 [9]: > 32 µM (inactive)
IC50 [10]: > 32 µM (inactive)
IC50 [11]: 5.82 µM (active)
IC50 [12]: > 32 µM (inactive)
IC50 [13]: 0.917 µM (active)
Compound: COc1ccc(CNCCC(c2ccccc2)c2ccc3c(c2)OCO3)cc1 (stereo not drawn)
